This data set in a line: method code SF-HPLC, from DOI: 10.1016/b978-0-08-029222-9.50040-8.
Consider `CSC(C)=NOC(=O)N(C)SN(C)C(=O)ON=C(C)SC`, for which the logP (in general, the decadic logarithm of the partition coefficient of the neutral form, usually between octanol and water) turned out to be 1.7.
For `CCCCN(SN(C)C(=O)ON=C(C)SC)C(=O)c1ccccc1` the value was 3.4; for `CSC(C)=NOC(=O)N(C)SN(C)C(=O)c1c(Cl)cccc1Cl`, 2.6; for `CSC(C)=NOC(=O)N(C)SN(C)C(=O)C1CC1`, 1.7.
`CSC(C)=NOC(=O)N(C)SN(C)C(=O)N(C(C)C)C(C)C` showed a logP of 2.6.
For `CSC(C)=NOC(=O)N(C)SN(C)C(=O)OC1CCCCC1` the value was 3.6; for `CN(SN(C)C(=O)OC(C)(C)C)C(=O)Oc1cccc2c1OC(C)(C)C2`, 4.3.
Consider `CN(SN(C)C(=O)c1ccccc1Cl)C(=O)Oc1cccc2c1OC(C)(C)C2`, for which the logP came out at 4.1.
`CNC(=O)ON=C(C)SC` returned a logP of 0.6.
For `CCCCCCC(=O)N(SN(C)C(=O)ON=C(C)SC)c1ccccc1` the value was 4.2; for `CCCCCCCCCCOC(=O)N(C)SN(C)C(=O)ON=C(C)SC`, 6.2.
On to `CCCCCCN(SN(C)C(=O)ON=C(C)SC)C(=O)N(C)C`, for which the logP worked out at 3.3.
Take `CS/C(C)=N\OC(=O)N(C)SN(C)C(=O)c1ccc(C)cc1`: the logP was determined as 2.5.
The compound `CSC(C)=NOC(=O)N(C)SN(C)C(=O)c1cccc(C(F)(F)F)c1` had a logP of 2.5.
The compound `CCCCN(SN(C)C(=O)ON=C(C)SC)C(C)=O` came in with a logP of 2.4.
The value for `CSC(C)=NOC(=O)N(C)SN(C(=O)c1ccc(C)cc1)C(C)C` was 3.4; that for `COC(=O)N(C)SN(C)C(=O)O/N=C(\C)SC` was 1.4.
The value for `CCCC(=O)N(C)SN(C)C(=O)Oc1cccc2c1OC(C)(C)C2` was 3.8; that for `CCCCCCOC(=O)N(C)SN(C)C(=O)ON=C(C)SC` was 4.2; that for `CSC(C)=NOC(=O)N(C)SN(C)C(=O)c1cccc(Cl)c1` was 2.7.
The compound `CCC(=O)N(C)SN(C)C(=O)ON=C(C)SC` displayed a logP of 1.6.
The value for `CN(SN(C)C(=O)c1ccc(Cl)cc1Cl)C(=O)Oc1cccc2c1OC(C)(C)C2` was 4.9; that for `CC(C)C(=O)N(C)SN(C)C(=O)Oc1cccc2c1OC(C)(C)C2` was 3.6.
On to `CC(=O)N(C)SN(C)C(=O)Oc1cccc2c1OC(C)(C)C2`, for which the logP is 2.7.
For `CSC(C)=NOC(=O)N(C)SN(C)C(=O)c1ccc(Cl)cc1` the value was 2.6; for `COC(=O)N(C)SN(C)C(=O)Oc1cccc2c1OC(C)(C)C2`, 3.
Consider `CCCCN(SN(C)C(=O)Oc1cccc2c1OC(C)(C)C2)C(=O)OC`, for which the logP was 4.6.
For `CCOC(=O)N(C)SN(C)C(=O)Oc1cccc2c1OC(C)(C)C2` the value was 3.5; for `CCCC(=O)N(C)SN(C)C(=O)ON=C(C)SC`, 2.2.
For `CCC(=O)N(C)SN(C)C(=O)Oc1cccc2c1OC(C)(C)C2` the value was 3.2; for `CCCCN(SN(C)C(=O)O/N=C(\C)SC)C(=O)OC`, 2.5; for `CCN(CC)C(=O)N(C)SN(C)C(=O)ON=C(C)SC`, 3.2.
`CS/C(C)=N\OC(=O)N(C)SN(C)C(C)=O`: the logP came to 1.3.
Compound `CCCCOC(=O)N(CCCC)SN(C)C(=O)ON=C(C)SC` registered a logP of 4.2.
With `CSC(C)=NOC(=O)N(C)SN(C)C(=O)c1ccccc1Cl`, the logP worked out at 2.5.
For `CSC(C)=NOC(=O)N(C)SN(C)C(=O)C(C)C` the value was 2.2.
Consider `CSC(C)=NOC(=O)N(C)SN(C)C(=O)c1ccccc1`, for which the logP turned out to be 2.2.
`CN(SN(C)C(=O)c1ccccc1)C(=O)Oc1cccc2c1OC(C)(C)C2`: the logP is 3.5.
As to `CN(SN(C)C(=O)c1ccc(Cl)cc1)C(=O)Oc1cccc2c1OC(C)(C)C2`, the logP is 4.
Consider `CSC(C)=NOC(=O)N(C)SN(C)C(=O)c1ccc(Cl)cc1Cl`, for which the logP was 3.2.

The record behind these values is the SangsterLogP compilation.
